“Also recorded” adds a separate entry of the source. Structures can show the parent of a compound that is named as a salt. Where two headings read alike, the source gives them in different places.
Assays:
[1] = system: HCoV-NL63 in Calu-3 cells; details: reported; cited from earlier work
[2] = system: HCoV-NL63; assay type: cell-based; details: 20 μM CM vs untreated/vehicle, 48 and 96 h p.i., particularly MOI=0.005, qualitative, scatter limits statistical significance
[3] = system: IAV in human primary bronchial epithelial cells; details: reported; cited from earlier work
[4] = system: A/WSN/33 strain of IAV; assay type: cell-based, influenza A virus
[5] = system: A/WSN/33 strain of IAV; assay type: cell-based, influenza A virus; remark: listed apart in the source
[6] = system: A/Hong Kong/8/68 H3N2; assay type: cell-based, influenza A virus
[7] = system: A/Hong Kong/8/68 H3N2; assay type: cell-based, influenza A virus; remark: listed apart in the source

Row | Structure (SMILES) | infection by HCoV-NL63 in Calu-3 cells [1] | viral copy number (RT-qPCR, apical wash) [2] | viral copy number (RT-qPCR, apical wash) ([2]; listed as CM) | infection by IAV in human primary bronchial epithelial cells [3] | effect of oseltamivir on barrier function (TEER) [4] | viral titers (qRT-PCR) [5] | virus-induced disruption to barrier function and epithelial tight junction formation [6] | influenza replication (viral copies, RT-qPCR) [7] | viral copies in apical wash in response to oseltamivir dose [7]
1 | CN(C)C(=O)COC(=O)Cc1ccc(OC(=O)c2ccc(NC(=N)N)cc2)cc1 [camostat mesylate, Camostat mesylate] | partially block infection | observed reduction in viral copies | reduces viral copy number | partially block infection |  |  |  |  | 
2 | CCC(CC)O[C@@H]1C=C(C(=O)O)C[C@H](N)[C@H]1NC(C)=O [oseltamivir, Oseltamivir carboxylate] |  |  |  |  | protective effect on barrier function | reduction in viral titers | prevented virus-induced disruption to barrier function and epithelial tight junction formation | significantly reduced influenza replication | marked decrease in viral copies; also recorded: reduce viral copies
